From US9302991B2, “Arylamide derivatives as TTX-S blockers” (RaQualia Pharma Inc., priority 2010, dated 2016) come the findings set out here.

Several values for one entry are separate records, joined by “and”; a condition that tells them apart may be missing. Identical values can stand only once.

The target in one test is T1, human Nav1.3 channels (Homo sapiens, UniProt Q9NY46).
T1 construct: expressed in transfected cells; host or cells: HEK293
Description: FRET assay, human Nav1.3 (EFS on FDSS). It counts as cell-based. The note with it: HEK293 cells expressing human Nav1.3, read-out: IC50 against Nav1.3. In outline: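 HEK293 cells expressing the channel, loaded with 10 microM CC2-DMPE then 15 microM DiSBAC2(3) plus 0.555 mM VABSC-1 in pH 7.4 HEPES buffer at room temperature. Membrane potential changes evoked by electrical field stimulation after compound addition; IC50 from 440 nm-normalized FRET ratios.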

The next test concerns the target T2, human Nav1.7 channels (Homo sapiens, UniProt Q15858).
T2 construct: expressed in transfected cells; host or cells: CHO
Description: FRET assay, human Nav1.7 (EFS on FDSS). Conditions: CHO cells expressing human Nav1.7, read-out: IC50 against Nav1.7. It counts as cell-based. Put shortly:
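IC50 was derived from normalized 440 nm fluorescence ratios of the EFS-evoked membrane-potential response read on FDSS. Recombinant CHO cells were sequentially dye-loaded with coumarin/oxonol FRET pair at room temperature in pH 7.4 buffer before compound addition.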

Test [1] relates to CCI-induced static allodynia in rats. The test can be described thus: Chronic Constriction Injury (CCI)-induced static allodynia in rats. The class given is in vivo, Sprague-Dawley rats. Conditions: 100 mg/kg per os. As for the experimental part: Chronic Constriction Injury (CCU-Induced Static Allodynia in Rats
Male Sprague-Dawley rats at 7 weeks old are purchased from Charles River Japan Inc., and housed in groups of two per cage under a 12-h light/dark cycle (lights on at 07:00) with access to food and water ad libitum. CCI-induced static allodynia is assessed by von Frey hair (VFH) test. Surgery is performed according to the method of Bennett G J and Xie Y K (Pain 1988, 33: 87-107). The animals are anesthetized with intraperitoneal injection of pentobarbital sodium. The left common sciatic nerve is exposed at the level of the middle of the thigh, freed of adhering tissue, and four ligatures are loosely tided around it by using 4-0 silk thread. The incision is sutured, and the rats are allowed to recover in their cages with soft bedding. Sham operation is performed in the same manner except of sciatic nerve ligation. The animals are individually placed in a Plexiglas test chamber on an elevated grid to acclimate for 1 hour before the day of testing. […]
In the cases where continuous positive or negative responses are observed all the way out to the end of the stimulus spectrum, values of 0.25 and 15 g are assigned, respectively. […] The 50% PWT is measured at the appropriated time after compound administration.

T2 sequence (Q15858 whole entry): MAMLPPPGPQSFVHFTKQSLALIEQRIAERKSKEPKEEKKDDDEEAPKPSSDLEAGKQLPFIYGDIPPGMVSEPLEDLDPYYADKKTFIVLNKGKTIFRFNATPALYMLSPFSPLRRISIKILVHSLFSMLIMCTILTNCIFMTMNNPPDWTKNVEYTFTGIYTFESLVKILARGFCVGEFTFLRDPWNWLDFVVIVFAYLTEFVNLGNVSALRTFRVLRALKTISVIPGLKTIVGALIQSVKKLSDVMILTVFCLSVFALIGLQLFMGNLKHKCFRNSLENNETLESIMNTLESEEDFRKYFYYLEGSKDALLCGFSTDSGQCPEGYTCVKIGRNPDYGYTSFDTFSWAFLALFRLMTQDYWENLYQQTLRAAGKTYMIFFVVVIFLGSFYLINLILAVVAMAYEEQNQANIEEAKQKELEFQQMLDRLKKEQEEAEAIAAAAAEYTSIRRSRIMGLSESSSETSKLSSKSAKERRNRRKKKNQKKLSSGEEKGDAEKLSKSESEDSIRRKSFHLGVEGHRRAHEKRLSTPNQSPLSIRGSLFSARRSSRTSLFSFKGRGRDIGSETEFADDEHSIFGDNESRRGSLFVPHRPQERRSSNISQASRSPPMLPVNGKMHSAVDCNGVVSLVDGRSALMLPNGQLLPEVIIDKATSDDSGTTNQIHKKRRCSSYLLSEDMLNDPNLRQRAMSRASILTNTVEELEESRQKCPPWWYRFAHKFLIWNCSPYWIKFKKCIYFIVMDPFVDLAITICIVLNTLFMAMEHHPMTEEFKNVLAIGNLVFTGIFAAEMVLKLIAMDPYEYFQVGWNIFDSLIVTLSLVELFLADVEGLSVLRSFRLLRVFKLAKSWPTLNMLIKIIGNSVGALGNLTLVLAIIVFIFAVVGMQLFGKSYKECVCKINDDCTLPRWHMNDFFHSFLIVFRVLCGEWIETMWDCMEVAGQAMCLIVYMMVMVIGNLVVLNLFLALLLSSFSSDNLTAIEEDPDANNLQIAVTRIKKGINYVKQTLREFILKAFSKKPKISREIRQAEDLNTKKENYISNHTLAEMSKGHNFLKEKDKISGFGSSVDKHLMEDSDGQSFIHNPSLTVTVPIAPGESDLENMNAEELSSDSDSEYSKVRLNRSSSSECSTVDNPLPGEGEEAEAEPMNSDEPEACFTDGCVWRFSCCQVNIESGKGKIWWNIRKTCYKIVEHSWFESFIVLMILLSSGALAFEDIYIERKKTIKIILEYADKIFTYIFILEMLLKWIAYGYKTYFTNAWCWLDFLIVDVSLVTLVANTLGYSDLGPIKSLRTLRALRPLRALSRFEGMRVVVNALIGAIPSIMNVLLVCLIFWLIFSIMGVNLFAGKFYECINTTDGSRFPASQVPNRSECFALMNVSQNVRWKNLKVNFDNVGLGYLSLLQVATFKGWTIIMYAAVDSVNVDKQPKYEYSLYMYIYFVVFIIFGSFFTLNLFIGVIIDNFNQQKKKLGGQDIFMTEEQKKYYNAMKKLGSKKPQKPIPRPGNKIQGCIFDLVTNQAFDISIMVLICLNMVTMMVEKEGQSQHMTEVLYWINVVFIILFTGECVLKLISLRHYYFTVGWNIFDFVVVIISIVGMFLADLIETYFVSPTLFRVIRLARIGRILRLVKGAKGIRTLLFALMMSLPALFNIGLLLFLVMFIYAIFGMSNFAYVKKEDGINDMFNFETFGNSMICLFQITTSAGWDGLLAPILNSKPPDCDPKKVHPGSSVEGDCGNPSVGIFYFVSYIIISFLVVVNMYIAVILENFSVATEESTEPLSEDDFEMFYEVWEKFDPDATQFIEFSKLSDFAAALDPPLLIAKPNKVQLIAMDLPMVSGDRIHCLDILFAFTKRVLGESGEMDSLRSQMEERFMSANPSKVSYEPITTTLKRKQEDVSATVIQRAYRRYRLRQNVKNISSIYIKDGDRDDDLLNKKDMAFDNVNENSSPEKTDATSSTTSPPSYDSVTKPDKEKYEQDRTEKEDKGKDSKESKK
T1 sequence (Q9NY46 whole entry): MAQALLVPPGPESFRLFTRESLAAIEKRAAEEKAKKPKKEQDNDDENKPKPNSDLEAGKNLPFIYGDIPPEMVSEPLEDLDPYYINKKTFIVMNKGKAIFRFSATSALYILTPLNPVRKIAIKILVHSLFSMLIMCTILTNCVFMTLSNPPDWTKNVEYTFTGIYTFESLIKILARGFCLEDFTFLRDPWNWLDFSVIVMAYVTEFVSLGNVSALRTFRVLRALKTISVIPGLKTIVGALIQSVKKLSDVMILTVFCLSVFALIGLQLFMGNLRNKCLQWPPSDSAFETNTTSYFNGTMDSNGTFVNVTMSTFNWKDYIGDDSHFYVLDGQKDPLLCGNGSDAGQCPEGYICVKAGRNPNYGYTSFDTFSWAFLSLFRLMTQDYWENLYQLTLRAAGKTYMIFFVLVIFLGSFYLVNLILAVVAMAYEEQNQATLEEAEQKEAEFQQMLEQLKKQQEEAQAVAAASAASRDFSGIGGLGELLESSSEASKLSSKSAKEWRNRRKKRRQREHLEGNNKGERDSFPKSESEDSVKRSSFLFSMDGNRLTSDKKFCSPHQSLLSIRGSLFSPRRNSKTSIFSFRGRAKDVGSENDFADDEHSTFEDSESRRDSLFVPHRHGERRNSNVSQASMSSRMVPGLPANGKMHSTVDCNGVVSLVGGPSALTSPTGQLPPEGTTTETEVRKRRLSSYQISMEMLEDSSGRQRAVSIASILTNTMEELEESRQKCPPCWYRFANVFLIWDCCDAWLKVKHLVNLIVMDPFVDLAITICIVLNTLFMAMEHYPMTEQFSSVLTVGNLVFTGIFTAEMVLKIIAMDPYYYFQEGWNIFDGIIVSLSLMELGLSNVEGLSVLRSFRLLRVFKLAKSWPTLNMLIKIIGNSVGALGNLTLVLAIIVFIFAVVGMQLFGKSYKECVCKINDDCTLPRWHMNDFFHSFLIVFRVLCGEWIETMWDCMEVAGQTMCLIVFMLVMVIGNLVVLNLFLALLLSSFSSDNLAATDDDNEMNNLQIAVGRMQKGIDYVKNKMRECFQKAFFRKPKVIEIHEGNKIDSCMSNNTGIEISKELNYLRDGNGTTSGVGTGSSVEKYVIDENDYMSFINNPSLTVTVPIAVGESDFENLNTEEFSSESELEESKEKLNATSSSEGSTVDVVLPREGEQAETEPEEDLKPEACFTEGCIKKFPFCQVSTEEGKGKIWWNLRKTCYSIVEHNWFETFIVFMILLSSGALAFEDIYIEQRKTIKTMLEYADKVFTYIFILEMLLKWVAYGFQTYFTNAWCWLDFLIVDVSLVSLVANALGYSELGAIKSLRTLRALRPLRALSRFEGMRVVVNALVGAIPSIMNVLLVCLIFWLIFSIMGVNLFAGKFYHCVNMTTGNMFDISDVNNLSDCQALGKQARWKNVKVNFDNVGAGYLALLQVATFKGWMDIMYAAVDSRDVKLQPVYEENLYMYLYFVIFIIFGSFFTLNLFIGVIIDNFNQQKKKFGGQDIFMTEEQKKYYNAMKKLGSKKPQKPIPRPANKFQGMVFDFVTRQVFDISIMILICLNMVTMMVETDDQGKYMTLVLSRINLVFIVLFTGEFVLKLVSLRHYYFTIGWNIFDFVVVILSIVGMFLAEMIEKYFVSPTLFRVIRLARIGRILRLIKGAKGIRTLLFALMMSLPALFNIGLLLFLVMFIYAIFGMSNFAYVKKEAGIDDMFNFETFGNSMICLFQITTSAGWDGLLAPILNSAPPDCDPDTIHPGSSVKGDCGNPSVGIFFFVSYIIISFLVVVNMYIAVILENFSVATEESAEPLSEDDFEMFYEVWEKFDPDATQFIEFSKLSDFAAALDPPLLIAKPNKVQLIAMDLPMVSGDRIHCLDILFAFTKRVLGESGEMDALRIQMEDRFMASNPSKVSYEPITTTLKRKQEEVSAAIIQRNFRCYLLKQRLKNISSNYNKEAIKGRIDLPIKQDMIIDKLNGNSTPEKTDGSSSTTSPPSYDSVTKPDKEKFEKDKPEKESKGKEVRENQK

The term IC50 denotes the point on the concentration scale where inhibition reaches its midpoint. With `CC(=O)Nc1cc(C(=O)NC(C)c2ccc(OCC(F)(F)F)nc2)ccn1` (single isomer, unassigned; (-)) [Example 1, (−)-2-acetamido-N-(1-(6-(2,2,2-trifluoroethoxy)pyridin-3-yl)ethyl)isonicotinamide], the IC50 was 2800 nM at human Nav1.3 channels; < 1000 nM and 940 nM on human Nav1.7 channels. In test [1], the “activity in CCI-induced static allodynia (50% PWT, von Frey hair test)” value is given as “potent activity”.
